US11214594B2, “Antimicrobial peptide having synergistic antibacterial effect with antibiotics on multidrug resistant bacteria, and use thereof” (priority 2016, dated 2022)
In brackets after ≈: the same amount, converted by molar mass. Like-named read-outs stand apart in the source and are kept apart here. Where a SMILES comes first, the peptide text is derived from it. [ ]: non-standard residue; d: D form.

Legend:
[1] = tested on: MDRAB 12035; experiment: MIC of antimicrobial peptide during combined treatment with antibiotic; assay type: cell-based, Acinetobacter baumannii
How it was run: (§1)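 Antibiotic MIC came from antibiotic dilutions added to bacteria (2×10^6 CFU/ml, MH medium) already combined with peptide serially diluted 2:1 from its own MIC. Swapping the roles of the two agents gave the peptide MIC.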

[2] = tested on: A. baumannii; experiment: as above; assay type: cell-based, Acinetobacter baumannii
How it was run: as §1

[3] = tested on: MDRAB 12035; experiment: microbe, parasite or virus in culture; assay type: cell-based, Acinetobacter baumannii
How it was run: (§2)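 Each strain is brought to 2×10^6 CFU in nutrient-sufficient Mueller-Hinton medium and dispensed into wells. Peptide solutions, stepwise diluted 2:1 in the same medium, are then added. The minimal concentration preventing growth gives the MIC.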

[4] = tested on: A. baumannii; experiment: microbe, parasite or virus in culture; assay type: cell-based, Acinetobacter baumannii
How it was run: as §2

[5] = tested on: P. aeruginosa; experiment: microbe, parasite or virus in culture; assay type: cell-based, Pseudomonas aeruginosa
How it was run: as §2

[6] = tested on: MDRST 8007; experiment: Minimal inhibitory concentration (MIC), single agent; assay type: cell-based, Salmonella typhimurium; conditions: agent alone
How it was run: as §2

[7] = tested on: S. epidermidis; experiment: microbe, parasite or virus in culture; assay type: cell-based, Staphylococcus epidermidis
How it was run: as §2

[8] = tested on: MDREC 1229; assay type: cell-based, Escherichia coli
How it was run: as §1

[9] = tested on: E. coli; assay type: cell-based, Escherichia coli; conditions: E. coli
How it was run: as §1

[10] = tested on: E. coli; experiment: MIC of antibiotic during combined treatment with antimicrobial peptide; assay type: cell-based, Escherichia coli; conditions: for Antibiotic MIC, Erythromycin / Antibiotic MIC, Linezolid: E. coli
How it was run: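 Antibiotic diluted in MH medium, dispensed per well with peptide; setup repeated with roles reversed; MIC read per combination.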

[11] = erythromycin 4 μg/ml (Conc./MIC 1/8)
[12] = erythromycin 8 μg/ml (Conc./MIC 1/4)
[13] = erythromycin 16 μg/ml (Conc./MIC 1/2)
[14] = erythromycin 32 μg/ml (Conc./MIC 1)
[15] = linezolid 64 μg/ml (Conc./MIC 1/8)
[16] = linezolid 512 μg/ml (Conc./MIC 1)
[17] = vancomycin 512 μg/ml (Conc./MIC 1/2)
[18] = vancomycin 1024 μg/ml (Conc./MIC 1)

With `CC[C@H](C)[C@H](NC(=O)[C@H](CCCCN)NC(=O)[C@H](Cc1c[nH]c2ccccc12)NC(=O)[C@@H](N)CCCNC(=N)N)C(=O)N[C@@H](Cc1ccccc1)C(=O)N[C@@H](CCCCN)C(=O)N[C@@H](CCCCN)C(=O)N[C@H](C(=O)N[C@H](CC(C)C)C(=O)N[C@@H](CCCCN)C(=O)N[C@@H](CC(C)C)C(=O)N[C@@H](CC(C)C)C(=O)N[C@@H](Cc1c[nH]cn1)C(=O)N[C@@H](CCCCN)C(=O)N[C@@H](C)C(=O)N[C@@H](CCCCN)C(=O)N[C@@H](CCCCN)C(=O)N[C@@H](Cc1c[nH]c2ccccc12)C(N)=O)[C@@H](C)CC` [PapMA-22, RWK IFK KIl KLL HKA KKW-NH2] (H-RWKIFKKI[dL]KLLHKAKKW-NH2; N-terminus assumed) the “Peptide MIC during treatment with erythromycin” value [1, 11] was 8 µg/mL, the “Peptide MIC during treatment with erythromycin” value [1, 12] was 8 µg/mL and the “Peptide MIC during treatment with erythromycin” value [1, 13] was 4 µg/mL. The “Peptide MIC during treatment with erythromycin” value [1, 14] was 0 µg/mL, the “Peptide MIC during treatment with linezolid” value [1, 15] was 4 µg/mL and the “Peptide MIC during treatment with linezolid” value [1, 16] was 0 µg/mL. For the same compound, the “Peptide MIC during treatment with linezolid” value ([1]; linezolid […] (Conc./MIC 1/2)) was 1 µg/mL, the “Peptide MIC during treatment with linezolid” value ([1]; linezolid […] (Conc./MIC 1/4)) was 4 µg/mL and the “Peptide MIC during treatment with vancomycin” value [1, 17] was 4 µg/mL. For the same compound, the “Peptide MIC during treatment with vancomycin” value [1, 18] was 1 µg/mL, the “Peptide MIC during treatment with vancomycin” value ([1]; vancomycin […] (Conc./MIC 1/4)) was 4 µg/mL and the “Peptide MIC during treatment with vancomycin” value ([1]; vancomycin […] (Conc./MIC 1/8)) was 4 µg/mL. The “Peptide MIC during treatment with erythromycin” value [2, 11] was 8 µg/mL, the “Peptide MIC during treatment with erythromycin” value [2, 12] was 4 µg/mL and the “Peptide MIC during treatment with erythromycin” value [2, 13] was 4 µg/mL. The “Peptide MIC during treatment with erythromycin” value [2, 14] was 0 µg/mL, the “Peptide MIC during treatment with linezolid” value ([2]; linezolid 32 μg/ml (Conc./MIC 1/8)) was 4 µg/mL and the “Peptide MIC during treatment with linezolid” value ([2]; linezolid 64 μg/ml (Conc./MIC 1/4)) was 4 µg/mL. The “Peptide MIC during treatment with linezolid” value ([2]; linezolid […] (Conc./MIC 1)) was 0 µg/mL, the “Peptide MIC during treatment with linezolid” value ([2]; linezolid […] (Conc./MIC 1/2)) was 1 µg/mL and the “Peptide MIC during treatment with vancomycin” value [2, 17] was 0.25 µg/mL. The “Peptide MIC during treatment with vancomycin” value [2, 18] was 0 µg/mL, the “Peptide MIC during treatment with vancomycin” value ([2]; vancomycin […] (Conc./MIC 1/4)) was 0.5 µg/mL and the “Peptide MIC during treatment with vancomycin” value ([2]; vancomycin […] (Conc./MIC 1/8)) was 2 µg/mL. The “Minimal inhibitory concentration MIC” value [3] was 32 µg/mL (≈ 13.5 µM), the “Peptide MIC, peptide alone” value [3] was 32 µg/mL and the “Minimal inhibitory concentration MIC” value [4] was 16 µg/mL (≈ 6.77 µM). For the same compound, the “Peptide MIC, peptide alone” value [4] was 16 µg/mL, the “Antibacterial activity relative to PapMA-1” value ([4]; A. baumannii and S. typhimurium) was “at least twice as high” and the “Minimal inhibitory concentration MIC” value [5] was 16 µg/mL (≈ 6.77 µM). For the same compound, the “Minimal inhibitory concentration MIC” value [6] was 32 µg/mL (≈ 13.5 µM), the “Minimal inhibitory concentration MIC” value [7] was over 128 µg/mL and the “Peptide MIC during treatment with antibiotic” value ([8]; erythromycin 32 μg/ml (Conc./MIC 1/8)) was 2 µg/mL. The “Peptide MIC during treatment with antibiotic” value ([8]; erythromycin 64 μg/ml (Conc./MIC 1/4)) was 2 µg/mL, the “Peptide MIC during treatment with antibiotic” value ([8]; erythromycin […] (Conc./MIC 1)) was 0 µg/mL and the “Peptide MIC during treatment with antibiotic” value ([8]; erythromycin […] (Conc./MIC 1/2)) was 1 µg/mL. The “Peptide MIC during treatment with antibiotic” value [8, 15] was 8 µg/mL, the “Peptide MIC during treatment with antibiotic” value [8, 16] was 0 µg/mL and the “Peptide MIC during treatment with antibiotic” value ([8]; linezolid […] (Conc./MIC 1/2)) was 1 µg/mL. The “Peptide MIC during treatment with antibiotic” value ([8]; linezolid […] (Conc./MIC 1/4)) was 4 µg/mL, the “Peptide MIC during treatment with antibiotic” value [8, 17] was 2 µg/mL and the “Peptide MIC during treatment with antibiotic” value [8, 18] was 2 µg/mL. For the same compound, the “Peptide MIC during treatment with antibiotic” value ([8]; vancomycin […] (Conc./MIC 1/4)) was 4 µg/mL, the “Peptide MIC during treatment with antibiotic” value ([8]; vancomycin […] (Conc./MIC 1/8)) was 8 µg/mL and the “Peptide MIC” value ([9]; with Erythromycin […] (Conc./MIC 1)) was 0 µg/mL. For the same compound, the “Peptide MIC” value ([9]; with Linezolid […] (Conc./MIC 1)) was 0 µg/mL, the “Peptide MIC” value ([9]; with Vancomycin 1024 μg/ml (Conc./MIC 1)) was 0 µg/mL and the “Synergistic effect of antibacterial activity with existing antibiotics compared with PapMA-1” value ([10]; E. coli and MDREC1229) was “level similar to that of the PapMA-1 peptide”. For the same compound, the “Antibiotic MIC, Erythromycin” value ([10]; erythromycin combined with peptide at 1 μg/ml) was 128 µg/mL, the “Antibiotic MIC, Erythromycin” value ([10]; erythromycin combined with peptide at 2 μg/ml) was 32 µg/mL and the “Antibiotic MIC, Erythromycin” value ([10]; erythromycin combined with peptide at 4 μg/ml) was 16 µg/mL. For the same compound, the “Antibiotic MIC, Erythromycin” value ([10]; erythromycin combined with peptide at 6 μg/ml) was 8 µg/mL, the “Antibiotic MIC, Erythromycin” value ([10]; erythromycin combined with peptide at 8 μg/ml) was 2 µg/mL and the “Antibiotic MIC, Erythromycin” value ([10]; erythromycin combined with peptide at 16 μg/ml) was 1 µg/mL. The “Antibiotic MIC, Erythromycin” value ([10]; erythromycin combined with peptide at 32 μg/ml) was 0 µg/mL, the “Antibiotic MIC, Erythromycin” value ([10]; erythromycin combined with peptide at 64 μg/ml) was 0 µg/mL and the “Antibiotic MIC, Linezolid” value ([10]; linezolid combined with peptide at 1 μg/ml) was over 128 µg/mL. The “Antibiotic MIC, Linezolid” value ([10]; linezolid combined with peptide at 2 μg/ml) was 128 µg/mL, the “Antibiotic MIC, Linezolid” value ([10]; linezolid combined with peptide at 4 μg/ml) was 64 µg/mL and the “Antibiotic MIC, Linezolid” value ([10]; linezolid combined with peptide at 6 μg/ml) was 32 µg/mL.
